Reference: patent US20210052741A1, “GENE THERAPY METHODS AND COMPOSITIONS USING AUXOTROPHIC REGULATABLE CELLS” (AUXOLYTIC LTD, priority 2018, published 2021)
“And” between values parts separate entries of the source, which are not always exact repeats. Equal values may be shown once.

Legend:
Assay type in all cases: cell-based, human
UMPS knockout T cells [1] = assay: Uracil auxotrophy growth assay after 5-FOA selection; settings: after 4 days 5-FOA selection, 4 days in supplemented media, without serum
Description: To assay whether or not the cells selected for by 5-FOA treatment were uracil auxotrophs, mock or UMPS targeted T cells were exposed to 5-FOA as shown in Example 4. Following 4 days of 5-FOA selection, the population of cells was split into an uracil containing media (UMP, uridine or both) and an uracil deficient media. A growth assay was subsequently performed by cell counting after following 4 days incubation in test media (Day 8) (FIG. 4A). In all cases, cell growth in the mock targeted cell cultures was negligible and independent of uracil source supplementation—indicating successful killing of non-UMPS targeted cells during the 5-FOA selection step (FIG. 4B-FIG. 4D).

Mock T cells [2] = assay: 5-FOA selection, cell counts after 4 days
Description: (§1) 5-FOA selects for uracil auxotrophic cells in other organisms (e.g. Boeke et al. 1984, Mol. Gen. Genet. 197(2):345-6), which is hereby incorporated by reference in its entirety). To investigate the potential utility of 5-FOA for the selection of uracil auxotrophs among human cells, the UMPS gene was targeted in human T cells by Cas9-gRNA complex electroporation followed by recovery (as shown in Example 2) followed by an assay of resistance to 5-FOA treatment (FIG. 3A). Cells were grown in 5-FOA and a variety of combinations of serum and uracil sources for 4 days before cell counting was performed.

UMPS-7 targeted T cells = assay: 5-FOA selection, cell counts after 4 days
Description: as §1

UMPS edited T cells = assay: TIDE analysis of UMPS InDels in mixed UMPS edited population
Description: Sanger sequencing of the UMPS locus was performed using UMPS-O-1 and UMPS-O-2, with the region amplified using PHUSION™ Hot Start Flex 2x Master Mix (New England Biolabs, Inc.). Sanger sequencing traces were analyzed by TIDE analysis (see, Brinkman et al, 2014, Nucleic Acids Res. 42(22):e168), which is hereby incorporated by reference in its entirety) to identify insertions and deletions (InDels) after editing. InDel quantification was performed on the sequences using the TIDE online tool (www.deskgen.com/landing/tide.html) (See, M. Sadelain, N. Engl. J. Med. 365, 1735-7 (2011), which is hereby incorporated by reference in its entirety.
T Cells were electroporated and edited as in Example 2 and allowed to recover for a 4-day period in medium with serum, uridine, and UMP. On day 4, cells were shifted to UMP, uridine, or uracil source media. […]
To confirm the results on the genomic level, genomic DNA was harvested at the end of the experiment and InDels were quantified (FIG. 5D-FIG. 5E). FIG. 5D compares the frequency of InDels in different culture conditions for cells not exposed to 5-FOA.

CCR5 knockout T cells = assay: Growth time course with/without UMP or uridine; settings: metabolite 250 μg/ml
Description: (§2) Genomic DNA was harvested using QUICKEXTRACT™ DNA Extraction Kit (Epicentre). Cells were counted on an automated cell counter using Trypan blue staining or on a CytoFLEX flow cytometer (Beckman Coulter) with automatic plate reader using COUNTBRIGHT™ beads (ThermoFisher) as a reference for normalizing the values. Alternatively, cells were analyzed after staining with fluorochrome-labelled antibodies (Biolegend) on an ACCURI™ C6 flow cytometer (BD Biosciences), which also measures volumes, or a FACS ARIA™ II SORP cell sorter (BD Biosciences). Data was analyzed using Excel (Microsoft) and FlowJo software (Tree Star).
(§3) T Cells were electroporated and edited as in Example 2 and allowed to recover for a 4-day period in medium with serum, uridine, and UMP. On day 4, cells were shifted to UMP, uridine, or uracil source media.
(§4) To evaluate whether the UMPS knockout leads to differential cell proliferation if cultured without the addition of Uridine or Uridine monophosphate (UMP), the cell counts in culture were followed over time by automatic cell counting with Trypan blue staining. UMPS knockout led to lower cell counts from day 2 after electroporation, compared to cells that were mock electroporated or electroporated using Cas9 targeting a different genomic locus (i.e., CCR5) (FIG. 5B).

UMPS knockout T cells [3] = assay: Growth time course with/without UMP or uridine
Description: as §2, §3, §4

Mock T cells [4] = assay: Growth time course with/without UMP or uridine; settings: metabolite 250 μg/ml
Description: as §2, §3, §4

[5] = cells not exposed to 5-FOA, end of experiment, metabolite 250 μg/ml
[6] = UMPS knockout, metabolite 250 μg/ml

O=c1ccn([C@@H]2O[C@H](COP(=O)(O)O)[C@@H](O)[C@H]2O)c(=O)[nH]1 [UMP, Uridine monophosphate]
Cells counts on Day 8 (UMPS knockout T cells [1]): 9978 and 6392 | Average of cells per volume unit (Mock T cells [2]; Mock, 4 days in 5-FOA without serum, with substrate): 24770.99 cells per volume unit | survival in 5-FOA compared to control (Mock T cells [2]; mock treated cells): improved the survival | survival in 5-FOA compared to control (UMPS-7 targeted T cells; UMPS targeted cells): improved the survival | Average of cells per volume unit (UMPS-7 targeted T cells; UMPS-7, 4 days in 5-FOA without serum, with substrate): 58299.26 cells per volume unit | Alleles with frameshift InDels, Percent of alleles (without 5-FOA) (UMPS edited T cells; TIDE, day 8, metabolite 250 μg/ml): 46.1% | Alleles with InDels, Percent of alleles (without 5-FOA) (UMPS edited T cells; TIDE, metabolite 250 μg/ml): 71.1% | frameshift InDel frequency, Percent (UMPS edited T cells; [5]): 46.1% | overall InDel frequency, Percent (%) (UMPS edited T cells; [5]): 71.1% | Predicted viable cell counts, Cells with In-frame InDel (UMPS edited T cells; day 8, metabolite 250 μg/ml): 908000 | Predicted viable cell counts, Cells with frameshift InDel (UMPS edited T cells; day 8, metabolite 250 μg/ml): 1670000 | Predicted viable cell counts, Cells without InDel (UMPS edited T cells; day 8, metabolite 250 μg/ml): 1049070 | Cell density, Day 1 (CCR5 knockout T cells): 1.02E+06 cells per ml | Cell density, Day 2 (CCR5 knockout T cells): 1.80E+06 cells per ml | Cell density, Day 4 (CCR5 knockout T cells): 3.32E+06 cells per ml | Cell density, Day 6 (CCR5 knockout T cells): 3.80E+06 cells per ml | Cell density, Day 8 (CCR5 knockout T cells): 4.03E+06 cells per ml | Cell density, Day 1 (UMPS knockout T cells [3]; [6]): 8.74E+05 cells per ml | Cell density, Day 2 (UMPS knockout T cells [3]; [6]): 1.86E+06 cells per ml | Cell density, Day 4 (UMPS knockout T cells [3]; [6]): 3.47E+06 cells per ml | Cell density, Day 6 (UMPS knockout T cells [3]; [6]): 3.88E+06 cells per ml | Cell density, Day 8 (UMPS knockout T cells [3]; [6]): 3.63E+06 cells per ml | Number of viable cells per ml, Day 1 (UMPS knockout T cells [3]; [6]): 874000 cells per ml | Number of viable cells per ml, Day 2 (UMPS knockout T cells [3]; [6]): 1860000 cells per ml | Number of viable cells per ml, Day 4 (UMPS knockout T cells [3]; [6]): 3470000 cells per ml | Number of viable cells per ml, Day 6 (UMPS knockout T cells [3]; [6]): 3880000 cells per ml | Number of viable cells per ml, Day 8 (UMPS knockout T cells [3]; [6]): 3630000 cells per ml | growth of UMPS edited culture (UMPS knockout T cells [3]; exogenous uracil source 250 μg/ml): rescued the growth of an UMPS edited culture to the same level as mock edited cells | cell proliferation after UMPS knockout (UMPS knockout T cells [3]; supplemented at 250 μg/ml): not impaired | Cell density, Day 1 (Mock T cells [4]): 9.83E+05 cells per ml | Cell density, Day 2 (Mock T cells [4]): 2.01E+06 cells per ml | Cell density, Day 4 (Mock T cells [4]): 3.80E+06 cells per ml | Cell density, Day 6 (Mock T cells [4]): 4.18E+06 cells per ml | Cell density, Day 8 (Mock T cells [4]): 3.90E+06 cells per ml
